Each block holds one molecule with its values, some of them ahead of it.
Tests used:
Schistosoma mansoni [1] = assay: Antischistosomal activity against adult Schistosoma mansoni Puerto Rican incubated for 72 hrs by microscopic method; type: functional, organism-based
Schistosoma mansoni [2] = assay: Antischistosomal activity against Schistosoma mansoni Puerto Rican schistosomula assessed as effect on worm phenotype measured after 72 hrs; type: functional, organism-based
Schistosoma mansoni [3] = assay: Antischistosomal activity against juvenile Schistosoma mansoni Puerto Rican incubated for 72 hrs by microscopic method; type: functional, organism-based
Schistosoma mansoni [4] = assay: Antischistosomal activity against Schistosoma mansoni Puerto Rican schistosomula assessed as effect on worm motility measured after 72 hrs; type: functional, organism-based
Schistosoma mansoni [5] = assay: Antischistosomal activity against adult Schistosoma mansoni LE assessed as reduction in motor activity at 10 uM measured after 24 hrs by inverted microscopy relative to control; type: functional; parameters: scale not given: the % may be the effect or the level left
Schistosoma mansoni [6] = assay: Antischistosomal activity against adult Schistosoma mansoni LE assessed as seperation of male and female worms at 10 uM measured after 24 hrs by inverted microscopy relative to control; type: functional
Schistosoma mansoni [7] = assay: Antischistosomal activity against adult Schistosoma mansoni LE assessed as reduction in motor activity at 50 uM measured after 24 hrs by inverted microscopy relative to control; type: functional; parameters: scale not given: the % may be the effect or the level left
Schistosoma mansoni [8] = assay: Antischistosomal activity against Schistosoma mansoni BH infected in Balb/c mouse assessed as reduction in worm burden at 400 mg/kg, po measurement after 2 weeks; type: functional; parameters: scale not given: the % may be the effect or the level left
ATP-diphosphohydrolase 1 = target: T1, ATP-diphosphohydrolase 1 (Schistosoma mansoni, UniProt Q7YTA4); assay: Inhibition of Schistosoma mansoni ATPDase1 incubated for 30 mins
T1 sequence (Q7YTA4 whole entry): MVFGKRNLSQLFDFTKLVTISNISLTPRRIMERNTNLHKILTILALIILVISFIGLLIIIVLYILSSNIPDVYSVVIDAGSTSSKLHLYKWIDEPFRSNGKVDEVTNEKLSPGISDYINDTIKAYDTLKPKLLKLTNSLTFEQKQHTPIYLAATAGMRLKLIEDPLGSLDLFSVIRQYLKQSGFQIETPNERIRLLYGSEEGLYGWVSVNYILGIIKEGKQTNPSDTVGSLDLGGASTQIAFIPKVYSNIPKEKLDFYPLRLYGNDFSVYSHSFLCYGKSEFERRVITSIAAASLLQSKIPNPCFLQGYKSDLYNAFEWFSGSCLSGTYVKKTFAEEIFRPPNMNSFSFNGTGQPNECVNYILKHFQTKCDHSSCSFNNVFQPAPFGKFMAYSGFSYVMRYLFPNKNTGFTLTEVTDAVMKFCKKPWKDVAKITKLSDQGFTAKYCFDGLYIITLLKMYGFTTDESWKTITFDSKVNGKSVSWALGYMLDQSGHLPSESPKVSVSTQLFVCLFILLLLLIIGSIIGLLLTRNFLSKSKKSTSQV

Schistosoma mansoni [9] = assay: Antischistosomal activity against Schistosoma mansoni NRMI schistosomula incubated for 24 hrs; type: functional

IC50 (Schistosoma mansoni [1]): 9.4 µM | IC50 (Schistosoma mansoni [2]): < 2 µM | IC50 (Schistosoma mansoni [3]): < 2 µM | IC50 (Schistosoma mansoni [4]): < 2 µM
Compound: CC1(C)CCC[C@]2(C)C(CC[C@@](C)(O)/C=C/c3ccc(F)cc3)[C@](C)(O)CC[C@@H]12 (stereo not given in full)

Compound: COc1cc(C[C@@H]2C(=O)OC[C@H]2Cc2cc(OC)c3c(c2)OCO3)cc(OC)c1OC
Activity (Schistosoma mansoni [5]): 100% | Activity (Schistosoma mansoni [6]): >85% | Activity (Schistosoma mansoni [7]): >75%

Compound: COc1ccc(/C=C/C(=O)c2ccccc2O)cc1
Activity (Schistosoma mansoni [8]): 32.8% | IC50 (ATP-diphosphohydrolase 1): 30.6 µM

Compound: CC(C)c1cc2c(cc1O)C(=O)C[C@H]1C(C)(C)CCC[C@]21C
LC50 (Schistosoma mansoni [9]): 19.1 µM
